{"source": "patent EP0306698A1", "about": "“Condensed diazepinones, processes for their preparation, and medicaments containing these compounds” (Dr. Karl Thomae GmbH, priority 1987, dated 1989)", "key": {"[1]": {"test_system": "Acetylcholinwirkung auf Herzfrequenz", "assay": "Inhibition of the acetylcholine effect on heart rate", "assay_type": "in vivo, Meerschweinchen", "source_text": "(§1) Dabei wurde die Herzfrequenz durch extrakorporale Ableitung des EKG, der Ausatemwiderstand nach Konzett-Rößler und die Kontraktion […] an den untersuchten Organen wurden Dosis-Wirkungskurven aufgenommen und daraus -log EDso-Werte bestimmt. Ergebnisse siehe Tabelle V."}, "[2]": {"test_system": "Acetylcholinwirkung auf Bronchien", "assay": "Inhibition of the acetylcholine effect on bronchi", "assay_type": "in vivo, Meerschweinchen", "source_text": "as §1"}, "Speichelsekretion": {"test_system": "Speichelsekretion", "assay": "Inhibition of pilocarpine-induced salivation in the rat", "assay_type": "in vivo, Ratte", "conditions": "in vivo", "procedure": "Nach Lavy und Mulder (Arch. int. Pharmacodyn. 178, 437-445, (1969)) erhielten mit 1,2 g/kg Urethan narkotisierte männliche THOM-Ratten steigende Dosen der Substanz i.v.. Die Speichelsekretion wurde durch s.c. Gabe von 2 mg/kg Pilocarpin ausgelöst. Der Speichel wurde mit Fließpapier aufgesaugt, die von ihm eingenommene Fläche alle 5 Minuten planimetrisch bestimmt. Die Dosis der Substanz, die das Speichelvolumen um 50% verminderte, wurde graphisch ermittelt. Ergebnisse siehe Tabelle 11."}, "[3]": {"target": "T1, muskarinischen Rezeptoren (Atrium) (Rattus norvegicus, UniProt P10980)", "T1 construct": "wurden die Tiere getötet, das Herz, die Bronchien und die Tränendrüsen entnommen; from tissue; host or cells: rat heart (atrium, ventricle), in vivo labelling with 3H-NMS", "T1 sequence (P10980 1-466)": "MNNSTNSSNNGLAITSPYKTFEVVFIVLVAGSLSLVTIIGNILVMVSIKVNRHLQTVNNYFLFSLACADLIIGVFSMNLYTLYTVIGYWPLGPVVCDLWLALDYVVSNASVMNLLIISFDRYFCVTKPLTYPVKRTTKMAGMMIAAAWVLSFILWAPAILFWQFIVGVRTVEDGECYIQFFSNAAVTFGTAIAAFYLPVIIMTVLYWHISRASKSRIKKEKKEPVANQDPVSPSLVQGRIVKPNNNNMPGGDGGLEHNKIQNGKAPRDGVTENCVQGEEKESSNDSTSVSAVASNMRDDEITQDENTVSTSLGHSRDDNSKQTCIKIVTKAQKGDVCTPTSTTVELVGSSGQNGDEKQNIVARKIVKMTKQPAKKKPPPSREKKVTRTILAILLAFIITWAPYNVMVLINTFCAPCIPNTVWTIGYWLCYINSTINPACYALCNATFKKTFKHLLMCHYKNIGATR", "assay": "Receptor binding test in vivo (3H-NMS), heart atrium", "set-up": "species or system Ratten", "source_text": "Für diese Experimente wurden weibliche Ratten mit einem Körpergewicht von ca. 200 g verwendet. Vor Versuchsbeginn wurden die Tiere mit einer Dosis von 1,25 g/kg Urethan narkotisiert. Die Tiere erhielten jeweils die vorgesehene Dosis der Prüfsubstanz durch i.v. Injektion. […] Nach weiteren 15 Minuten wurden die Tiere getötet, das Herz, die Bronchien und die Tränendrüsen entnommen. Diese Organe wurden in Soluene R aufgelöst und die Radioaktivität bestimmt. Diese Messwerte wurden als Totalbindung angenommen. […] Aus diesen Versuchen wurden für die einzelnen Organe IDso-Werte ermittelt. Die IDso-Werte sind Dosen der Prüfsubstanzen, die 50% der spezifischen Bindung von ^3H-NMS an die muskarinischen Rezeptoren der jeweiligen Organe hemmten."}, "[4]": {"target": "T2, muskarinischen Rezeptoren (Ventrikel) (Rattus norvegicus, UniProt P10980)", "T2 construct": "wurden die Tiere getötet, das Herz, die Bronchien und die Tränendrüsen entnommen; from tissue; host or cells: rat heart (atrium, ventricle), in vivo labelling with 3H-NMS", "T2 sequence (P10980 1-466)": "T1 sequence (P10980 1-466)", "assay": "Receptor binding test in vivo (3H-NMS), heart ventricle", "set-up": "species or system Ratten", "conditions": "iv", "procedure": "Für diese Experimente wurden weibliche Ratten mit einem Körpergewicht von ca. 200 g verwendet. Vor Versuchsbeginn wurden die Tiere mit einer Dosis von 1,25 g/kg Urethan narkotisiert. Die Tiere erhielten jeweils die vorgesehene Dosis der Prüfsubstanz durch i.v. Injektion. Nach Ablauf von 15 Minuten wurde auf gleiche Weise 113 ng/kg ^3H-N-Methylscopolamin (^3H-NMS) gegeben. Nach weiteren 15 Minuten wurden die Tiere getötet, das Herz, die Bronchien und die Tränendrüsen entnommen. Diese Organe wurden in Soluene R aufgelöst und die Radioaktivität bestimmt. Diese Messwerte wurden als Totalbindung angenommen. […] Aus diesen Versuchen wurden für die einzelnen Organe IDso-Werte ermittelt. Die IDso-Werte sind Dosen der Prüfsubstanzen, die 50% der spezifischen Bindung von ^3H-NMS an die muskarinischen Rezeptoren der jeweiligen Organe hemmten."}, "[5]": {"target": "T3, muskarinischen Rezeptoren (Tränendrüsen) (Rattus norvegicus, UniProt P08483)", "T3 sequence (P08483 whole entry)": "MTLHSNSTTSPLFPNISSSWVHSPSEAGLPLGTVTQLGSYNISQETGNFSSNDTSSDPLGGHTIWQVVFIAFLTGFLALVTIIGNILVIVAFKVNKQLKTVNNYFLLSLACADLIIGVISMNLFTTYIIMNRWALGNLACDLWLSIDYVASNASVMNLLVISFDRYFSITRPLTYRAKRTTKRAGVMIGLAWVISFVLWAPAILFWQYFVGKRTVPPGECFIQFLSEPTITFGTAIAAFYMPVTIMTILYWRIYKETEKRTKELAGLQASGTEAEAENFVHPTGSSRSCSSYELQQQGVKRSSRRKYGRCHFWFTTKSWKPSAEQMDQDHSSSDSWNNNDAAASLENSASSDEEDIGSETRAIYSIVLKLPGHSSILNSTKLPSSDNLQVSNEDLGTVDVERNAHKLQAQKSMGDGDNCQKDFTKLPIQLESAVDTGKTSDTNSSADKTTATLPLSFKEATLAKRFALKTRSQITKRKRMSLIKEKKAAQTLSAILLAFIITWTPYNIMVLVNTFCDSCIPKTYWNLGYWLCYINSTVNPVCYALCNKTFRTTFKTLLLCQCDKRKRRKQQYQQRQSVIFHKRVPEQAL", "conditions": "in vivo, iv"}, "[6]": {"test_system": "Acetylcholinwirkung auf Blase", "assay": "Inhibition of the acetylcholine effect on bladder", "assay_type": "in vivo, Meerschweinchen", "source_text": "as §1"}, "M1": {"test_system": "M1", "assay": "M1 activity in the rat: inhibition of blood pressure rise caused by McN-A-343", "assay_type": "in vivo, Ratte", "procedure": "(§2) Die angewandte Methode wurde von Hammer und Giachetti (Life Sciences 31, 2991-2998 (1982)) beschrieben. 5 Minuten nach intravenöser Injektion steigender Dosen der Substanz wurden entweder der rechte Vagus elektrisch stimuliert (Frequenz: 25 Hz; Pulsbreite: 2ms; Reizdauer: 30s; Voltzahl: supramaximal) oder 0,3 mg/kg McN-A-343 in männliche THOM-Ratten intravenös injiziert. Die durch Vagusstimulation hervorgerufene Bradykardie und der durch McN-A-343 verursachte Blutdruckanstieg wurden bestimmt. Die Dosis der Substanzen, die entweder die vagale Bradykardie (M2) oder den Blutdruckanstieg (Mi) um 50% verminderte, wurde graphisch ermittelt. Ergebnisse siehe Tabelle II."}, "[7]": {"target": "T4, muscarinischen Rezeptoren (Herz) (Rattus norvegicus, UniProt P10980)", "T4 construct": "Das Gesamtherz wurde mit einer Schere zerkleinert; Alle Organe wurden abschließend in einem Potter homogenisiert; from tissue; host or cells: rat whole heart homogenate", "T4 sequence (P10980 1-466)": "T1 sequence (P10980 1-466)", "assay": "biochemical", "assay_type": "binding, Ratte", "conditions": "whole heart homogenate 1:400, 0,3 nmolar 3H-NMS, 30°C, 45 min; read-out: Rezeptor-Bindungs-Tests -log IC50 Herz (converted)", "source_text": "Als Organspender dienten männliche Sprague-Dawley-Ratten mit 180-220 g Körpergewicht. Nach Entnahme von Herz und Submandibularis wurden alle weiteren Schritte in eiskaltem Hepes-HCI-Puffer (pH 7,4; 100 m molar NaCI, 10 m molar MgCI2) vorgenommen. Das Gesamtherz wurde mit einer Schere zerkleinert. Alle Organe wurden abschließend in einem Potter homogenisiert.\nFür den Bindungstest wurden die Organhomogenate in folgender Weise verdünnt: • Gesamtherz 1:400 • Submandibularis 1:400\nDie Inkubation der Organhomogenate erfolgte bei einer bestimmten Konzentration des Radioliganden und einer Konzentrationsreihe der nichtradioaktiven Testsubstanzen im Eppendorf-Zentrifugenröhrchen bei 30°C. Die Inkubationsdauer betrug 45 Minuten. Als Radioligand wurde 0,3 nmolar ^3H-N-Methylscopolamin (^3H-NMS) verwendet. Die Inkubation wurde durch Zugabe von eiskaltem Puffer mit nachfolgender Vakuumfiltration beendet. Die Filter wurden mit kaltem Puffer gespült und ihre Radioaktivität bestimmt. Sie repräsentiert die Summe von spezifischer und unspezifischer Bindung von ^3H-NMS. Der Anteil der unspezifischen Bindung wurde definiert als jene Radioaktivität die in Anwesenheit von 1 u. molar Quinciidinylbenzilat gebunden wurde. Es wurden immer Vierfachbestimmungen vorgenommen. Die ICso-Werte der nicht markierten Testsubstanzen wurden graphisch bestimmt. Sie repräsentieren jene Konzentration der Testsubstanz, bei welcher die spezifische Bindung von ^3H-NMS an die muscarinischen Rezeptoren in den verschiedenen Organen um 50 % gehemmt wurde."}, "[8]": {"target": "T3, muskarinischen Rezeptoren (Tränendrüsen)", "assay": "in vivo", "conditions": "iv, 0.5 h, read-out: ID50 Tränendrüsen"}, "M2": {"test_system": "M2", "assay": "M2 activity in the rat: inhibition of bradycardia induced by vagus stimulation", "assay_type": "in vivo, Ratte", "conditions": "i.v.; dose reducing vagal bradycardia by 50%; 5 min after injection", "procedure": "as §2"}}}
{"smiles": "CN1C2CCC1CC(OC(=O)C(CO)c1ccccc1)C2", "note": "(racemic) [Z, Atropin, reference compound]", "values": [{"measurement": "-log ED50 Herz", "setting": "[1]; in vivo", "value": "7,70 Molkg^-1"}, {"measurement": "-log ED50 Bronchien", "setting": "[2]; in vivo", "value": "7,96 Molkg^-1"}, {"measurement": "Verhältnis Speichelsekretionshemmung zu M2-Aktivität", "setting": "Speichelsekretion", "value": "2,2"}, {"measurement": "Verhältnis der ID50 Tränendrüse zu ID50 des Atrium", "setting": "[3]; in vivo", "value": "1,5"}, {"measurement": "ID50 Herz Atrium", "setting": "[3]; in vivo, iv", "value": "0,08 mg/kg"}, {"measurement": "ID50 Herz Ventrikel", "setting": "[4]; in vivo", "value": "0,03 mg/kg"}, {"measurement": "ID50 Tränendrüsen", "setting": "[5]", "value": "0,2 mg/kg"}, {"measurement": "-log ED50 Blase", "setting": "[6]; in vivo", "value": "7,03 Molkg^-1"}, {"measurement": "M1-Aktivität (Ratte) ED50", "setting": "M1; in vivo", "value": 0.016, "unit": "mg/kg"}]}
{"smiles": "CCN(CC)CC1CCCCN1CC(=O)N1c2ccccc2C(=O)Nc2cccnc21", "note": "(stereo not drawn) [X, 11-[[2-[(Diethylamino)methyl]-1-piperidinyl]acetyl]-5,11-dihydro-6H-pyrido[2,3-b][1,4]-benzodiazepin-6-on, reference compound]", "values": [{"measurement": "ED50", "setting": "[1]; Cavia porcellus, 5 min, anaesthetised guinea pig, acetylcholine 5 min after test substance, heart rate", "value": 1.45, "unit": "µmol/kg"}, {"measurement": "ED50", "setting": "[2]; Cavia porcellus, 5 min, anaesthetised guinea pig, acetylcholine 5 min after test substance, expiratory resistance, read-out: -log ED50 Bronchien (converted)", "value": 2.63, "unit": "µmol/kg"}, {"measurement": "ED50", "setting": "[3]; rat, iv, 0.5 h, read-out: ID50 Herz Atrium", "value": 1, "unit": "mg/kg"}, {"measurement": "ED50", "setting": "[4]; rat, 0.5 h, read-out: ID50 Herz Ventrikel", "value": 0.6, "unit": "mg/kg"}, {"measurement": "IC50", "setting": "[7]", "value": 151, "unit": "nM"}, {"measurement": "ED50", "setting": "[8]", "value": "> 30", "unit": "mg/kg"}, {"measurement": "M2-Aktivität (Ratte) ED50", "setting": "M2", "value": 0.16, "unit": "mg/kg"}, {"measurement": "ED50", "setting": "[6]; Cavia porcellus, 5 min, anaesthetised guinea pig, acetylcholine 5 min after test substance, bladder contraction, read-out: -log ED50 Blase (converted)", "value": 18.6, "unit": "µmol/kg"}, {"measurement": "M1-Aktivität (Ratte) ED50", "setting": "M1; i.v., dose reducing McN-A-343 (0,3 mg/kg) blood pressure rise by 50%, 5 min", "value": 0.988, "unit": "mg/kg"}]}
